US10717720B2, “Modified compound of andrographolide” (Heilongjiang Zhenbaodao Pharmaceutical Co., Ltd., priority 2015, dated 2020)

The compounds below were run on LPS-induced IL-6 release level from THP-1 cells (assay: Test of IL-6 release from THP-1 cells (LPS-induced, IL-6 in supernatant detected by CBA)). Settings: Homo sapiens, THP-1, 24 h, read-out: Inhibition rate @ 10 uM.
Format: cell-based
Experimental: Test of IL-6 Release from THP-1 Cells
The inhibitory effect of the compound on LPS-induced IL-6 release level from THP-1 cells was evaluated by measuring the level of IL-6 in the cell culture supernatant.
4 ul was taken from each above solution and added to lml of culture solution to make 120 uM, 40 uM, 12 uM, 4 uM. 50 ul per well was taken and added to wells with cells to give final concentrations of 30 uM, 10 uM, 3 uM, and 1 uM, respectively. Dexamethasone was added as a positive drug into an individual cell well with a final concentration of 100 nM. • c) Cell stimulation
The LPS 1 mg/ml solution was diluted to 800 ng/ml with the culture solution and added to the cell culture wells at 50 ul/well. • d) Cell incubation and detection
The cell culture plate was placed in a 37° C. incubator, and the supernatant was collected after culturing for 24 hours. The level of IL-6 in the supernatant was detected by CBA.

How did the inhibition at 10 µM turn out when `C=C1CCC2[C@]3(C)CO[C@@H](C4CCCC4)O[C@@H]3CC[C@@]2(C)[C@@H]1CCOc1ccncn1` (stereo partly drawn) [Compound 312, 4-(2-((3R,4aR,6aS,7R,10bR)-3-cyclopentyl-6a,10b-dimethyl-8-dihydromethylenedecahydro-1H-naphtho[2,1-d][1,3]dioxin-7-yl)ethoxy)pyrimidine] was run?
Its inhibition at 10 µM is < 30%.

`C=C1CCC2[C@]3(C)CO[C@@H](C4CCCC4)O[C@@H]3CC[C@@]2(C)[C@@H]1CCOC1CN(C(C)C)C1` (stereo partly drawn) [Compound 313, 3-(2-((3R,4aR,6aS,7R,10bR)-3-cyclopentyl-6a,10b-dimethyl-8-dihydromethylenedecahydro-1H-naphtho[2,1-d][1,3]dioxin-7-yl)ethoxy)-1-isopropyl azetidine] was tested. Which inhibition at 10 µM did it give?
Its inhibition at 10 µM is 30 to 60%.

`C=C1CCC2[C@]3(C)CO[C@@H](C4CCCC4)O[C@@H]3CC[C@@]2(C)[C@@H]1CCNc1ccncc1F` (stereo partly drawn) [Compound 345, N-(2-((3R,4aR,6aS,7R,10bR)-3-cyclopentyl-6a,10b-dimethyl-8-decahydromethylene-1H-naphtho[2,1-d][1,3]dioxin-7-yl)ethyl)-3-fluoropyridin-4-amine] was tested. Which inhibition at 10 µM did it give?
The inhibition at 10 µM was 30 to 60%.

For `C=C1CCC2[C@]3(C)CO[C@@H](C4CCCC4)O[C@@H]3CC[C@@]2(C)[C@@H]1CCOC1CCN(C(=O)CN)CC1` (stereo partly drawn) [Compound 373, 2-Amino-1-(4-(2-((3R,4aR,6aS,7R,10bR)-3-cyclopentyl-6a,10b-dimethyl-8-methylenedecahydro-1H-naphtho[2,1-d][1,3]dioxin-7-yl)ethoxy)piperidine-1-yl)acetamide], which inhibition at 10 µM is on record?
The inhibition at 10 µM was 30 to 60%.

Same assay, conditions: Homo sapiens; inflammatory factor IL-6 detected by CBA; compound 10 uM; LPS-stimulated THP-1 cells, supernatant after 24 hours; read-out: Inhibition rate @ 10 uM

`C=C1CCC2[C@]3(C)CO[C@@H](C4CCCC4)O[C@@H]3CC[C@@]2(C)[C@@H]1CCNc1cnoc1` (stereo partly drawn) [Compound 207, N-(2-((3R,4aR,6aS,7R,10bR)-3-cyclopentyl-6a,10b-dimethyl-8-decahydromethylene-1H-naphtho[2,1-d][1,3]dioxin-7-yl)ethyl)isoxazol-4-amine] was tested. Which inhibition at 10 µM did it give?
The inhibition at 10 µM was 30 to 60%.

With `C=C1CCC2[C@]3(C)CO[C@@H](c4ccc(F)c(F)c4)O[C@@H]3CC[C@@]2(C)[C@@H]1CCN1CCN(C)C1=O` (stereo partly drawn) [Compound 212, 3-(2-((3R,4aR,6aS,7R,10bR)-3-(3,4-difluorophenyl)-6a,10b-dimethyl-8-decahydromethylene-1H-naphtho[2,1-d][1,3]dioxin-7-yl)ethyl)-1-methyltetrahydroimidazol-2-one] as the compound, how does the inhibition at 10 µM read?
Its inhibition at 10 µM is > 60%.

`C=C1CCC2[C@]3(C)CO[C@@H](c4ccc(F)c(F)c4)O[C@@H]3CC[C@@]2(C)[C@@H]1CCN1C(=O)CCC1=O` (stereo partly drawn) [Compound 214, 1-(2-((3R,4aR,6aS,7R,10bR)-3-(3,4-difluorophenyl)-6a, 10b-dimethyl-8-methylenedecahydro-1H-naphtho[2,1-d][1,3]dioxin-7-yl)ethyl)pyrrolidine-2,5-dione] was tested. Which inhibition at 10 µM did it give?
The inhibition at 10 µM was > 60%.

With `C=C1CCC2[C@]3(C)CO[C@@H](c4ccc(F)c(F)c4)O[C@@H]3CC[C@@]2(C)[C@@H]1CCN1C(=O)COC1=O` (stereo partly drawn) [Compound 215, 3-(2-((3R,4aR,6aS,7R,10bR)-3-(3,4-difluorophenyl)-6a, 10b-dimethyl-8-methylenedecahydro-1H-naphtho[2,1-d][1,3]dioxin-7-yl)ethyl)oxazolidine-2,4-dione] as the compound, how does the inhibition at 10 µM read?
Its inhibition at 10 µM is < 30%.

`C=C1CCC2[C@]3(C)CO[C@@H](c4ccc(F)c(F)c4)O[C@@H]3CC[C@@]2(C)[C@@H]1CCN1C(=O)CNC1=O` (stereo partly drawn) [Compound 230, 3-(2-((3R,4aR,6aS,7R,10bR)-3-(3,4-difluorophenyl)-6a,10b-dimethyl-8-methylenedecahydro-1H-naphtho[2,1-d][1,3]dioxin-7-yl)ethyl)tetrahydroimidazole-2,4-dione] was tested. Which inhibition at 10 µM did it give?
Its inhibition at 10 µM is > 60%.

Which inhibition at 10 µM does the source give for `C=C1CCC2[C@]3(C)CO[C@@H](C4CCCC4)O[C@@H]3CC[C@@]2(C)[C@@H]1CCN1CCC(C(=O)O)CC1` (stereo partly drawn) [Compound 256, 1-(2-((3R,4aR,6aS,7R,10bR)-3-cyclopentyl-6a,10b-dimethyl-8-methylene-decahydro-1H-naphtho[2,1-d][1,3]dioxin-7-yl)ethyl)piperidin-4-carboxylic acid] here?
The inhibition at 10 µM was < 30%.

With `C=C1CCC2[C@](C)(CO)[C@H](O)CC[C@@]2(C)[C@@H]1CCN1CCC(CO)CC1` (some centres unmarked) [Compound 265] as the compound, how does the inhibition at 10 µM read?
The inhibition at 10 µM was < 30%.

With `C=C1CCC2[C@]3(C)CO[C@@H](C4CCCC4)O[C@@H]3CC[C@@]2(C)[C@@H]1CCOCCCN(C)C` (stereo partly drawn) [Compound 281, 3-(2-((3R,4aR,6aS,7R,10bR)-3-cyclopentyl-6a,10b-dimethyl-8-dihydromethylenedecahydro-1H-naphtho[2,1-d][1,3]dioxin-7-yl)ethoxy)-N,N-dimethylpropan-1-amine] as the compound, how does the inhibition at 10 µM read?
The inhibition at 10 µM was 30 to 60%.

With `C=C1CCC2[C@]3(C)CO[C@@H](C4CCCC4)O[C@@H]3CC[C@@]2(C)[C@@H]1CCN(CCO)CCCN(C)C` (stereo partly drawn) [Compound 284, 2-((2-((3R,4aR,6aS,7R,10bR)-3-cyclopentyl-6a, 10b-dimethyl-8-methylene-decahydro-1H-naphtho[2,1-d][1,3]dioxin-7-yl)ethyl)(3-(dimethylamino)propyl)amino)ethanol] as the compound, how does the inhibition at 10 µM read?
Its inhibition at 10 µM is 30 to 60%.

For `C=C1CCC2[C@]3(C)CO[C@@H](C4CCCC4)O[C@@H]3CC[C@@]2(C)[C@@H]1CCOc1cnn(C)c1` (stereo partly drawn) [Compound 289, 4-(2-((3R,4aR,6aS,7R,10bR)-3-cyclopentyl-6a,10b-dimethyl-8-dihydromethylenedecahydro-1H-naphtho[2,1-d][1,3]dioxin-7-yl)ethoxy)-2-methyl-1H-pyrazole], which inhibition at 10 µM is on record?
Its inhibition at 10 µM is > 60%.

`C=C1CCC2[C@]3(C)CO[C@@H](C4CCCC4)O[C@@H]3CC[C@@]2(C)[C@@H]1CCOc1ccncc1` (stereo partly drawn) [Compound 297, 4-(2-((3R,4aR,6aS,7R,10bR)-3-cyclopentyl-6a,10b-dimethyl-8-dihydromethylenedecahydro-1H-naphtho[2,1-d][1,3]dioxin-7-yl)ethoxy)pyridine] was tested. Which inhibition at 10 µM did it give?
Its inhibition at 10 µM is > 60%.

For `C=C1CCC2[C@]3(C)CO[C@@H](C4CCCC4)O[C@@H]3CC[C@@]2(C)[C@@H]1CCOc1cccnc1` (stereo partly drawn) [Compound 310, 3-(2-((3R,4aR,6aS,7R,10bR)-3-cyclopentyl-6a,10b-dimethyl-8-dihydromethylenedecahydro-1H-naphtho[2,1-d][1,3]dioxin-7-yl)ethoxy)-pyridine], which inhibition at 10 µM is on record?
The inhibition at 10 µM was > 60%.

Which inhibition at 10 µM does the source give for `C=C1CCC2[C@]3(C)CO[C@@H](C4CCCC4)O[C@@H]3CC[C@@]2(C)[C@@H]1CCOc1ccccn1` (stereo partly drawn) [Compound 317, 2-(2-((3R,4aR,6aS,7R,10bR)-3-cyclopentyl-6a,10b-dimethyl-8-dihydromethylenedecahydro-1H-naphtho[2,1-d][1,3]dioxin-7-yl)ethoxy) pyridine] here?
The inhibition at 10 µM was > 60%.

`C=C1CCC2[C@]3(C)CO[C@@H](C4CCCC4)O[C@@H]3CC[C@@]2(C)[C@@H]1CCOc1ccnc(C)c1` (stereo partly drawn) [Compound 319, 4-(2-((3R,4aR,6aS,7R,10bR)-3-cyclopentyl-6a,10b-dimethyl-8-dihydromethylenedecahydro-1H-naphtho[2,1-d][1,3]dioxin-7-yl)ethoxy)-2-methylpyridine] was tested. Which inhibition at 10 µM did it give?
Its inhibition at 10 µM is 30 to 60%.

How did the inhibition at 10 µM turn out when `C=C1CCC2[C@]3(C)CO[C@@H](C4CCCC4)O[C@@H]3CC[C@@]2(C)[C@@H]1CCOc1ccnc(N)c1` (stereo partly drawn) [Compound 321, 4-(2-((3R,4aR,6aS,7R,10bR)-3-cyclopentyl-6a,10b-dimethyl-8-dihydromethylenedecahydro-1H-naphtho[2,1-d][1,3]dioxin-7-yl)ethoxy)-pyridin-2-amine] was run?
Its inhibition at 10 µM is < 30%.

`C=C1CCC2[C@]3(C)CO[C@@H](C4CCCC4)O[C@@H]3CC[C@@]2(C)[C@@H]1CCOc1ccncc1N` (some centres unmarked) [Compound 339] was tested. Which inhibition at 10 µM did it give?
Its inhibition at 10 µM is < 30%.

Which inhibition at 10 µM does the source give for `C=C1CCC2[C@]3(C)CO[C@@H](C4CCCC4)O[C@@H]3CC[C@@]2(C)[C@@H]1CCOc1ccncc1F` (stereo partly drawn) [Compound 344, 4-(2-((3R,4aR,6aS,7R,10bR)-3-cyclopentyl-6a,10b-dimethyl-8-dihydromethylenedecahydro-1H-naphtho[2,1-d][1,3]dioxin-7-yl)ethoxy)-3-fluoropyridine] here?
Its inhibition at 10 µM is > 60%.

With `C=C1CCC2[C@]3(C)CO[C@@H](C4CCCC4)O[C@@H]3CC[C@@]2(C)[C@@H]1CCOc1ccncc1C#N` (stereo partly drawn) [Compound 349, 4-(2-((3R,4aR,6aS,7R,10bR)-3-cyclopentyl-6a,10b-dimethyl-8-dihydromethylenedecahydro-1H-naphtho[2,1-d][1,3]dioxin-7-yl)ethoxy)cyanopyridine] as the compound, how does the inhibition at 10 µM read?
Its inhibition at 10 µM is > 60%.

`C=C1CCC2[C@]3(C)CO[C@@H](C4CCCC4)O[C@@H]3CC[C@@]2(C)[C@@H]1CCOCc1ccncc1` (stereo partly drawn) [Compound 351, 4-((2-((3R,4aR,6aS,7R,10bR)-3-cyclopentyl-6a,10b-dimethyl-8-dihydromethylenedecahydro-1H-naphtho[2,1-d][1,3]dioxin-7-yl)ethoxy)methyl)pyridine] was tested. Which inhibition at 10 µM did it give?
Its inhibition at 10 µM is > 60%.

With `C=C1CCC2[C@]3(C)CO[C@@H](C4CCCC4)O[C@@H]3CC[C@@]2(C)[C@@H]1CCN1CC(CO)C1` (some centres unmarked) [Compound 355] as the compound, how does the inhibition at 10 µM read?
The inhibition at 10 µM was < 30%.

`C=C1CCC2[C@]3(C)CO[C@@H](C4CCCC4)O[C@@H]3CC[C@@]2(C)[C@@H]1CCOc1ccn(C)c(=O)c1` (stereo partly drawn) [Compound 357, 4-(2-((3R,4aR,6aS,7R,10bR)-3-cyclopentyl-6a,10b-dimethyl-8-dihydromethylenedecahydro-1H-naphtho[2,1-d][1,3]dioxin-7-yl)ethoxy)-1-methylpyridin-2(1H)-one] was tested. Which inhibition at 10 µM did it give?
Its inhibition at 10 µM is > 60%.

Which inhibition at 10 µM does the source give for `C=C1CCC2[C@]3(C)CO[C@@H](C4CCCC4)O[C@@H]3CC[C@@]2(C)[C@@H]1CCOC1CCN(C)CC1` (stereo partly drawn) [Compound 366, 4-(2-((3R,4aR,6aS,7R,10bR)-3-cyclopentyl-6a,10b-dimethyl-8-dihydromethylenedecahydro-1H-naphtho[2,1-d][1,3]dioxin-7-yl)ethoxy)-1-methylpiperidine] here?
Its inhibition at 10 µM is > 60%.
